Measured values reported in PMC6684055 (Toxicology letters, 2019).
“And” between values parts separate entries of the source, which are not always exact repeats. Identical values can stand only once. “Also recorded” adds a separate entry of the source. Blank lines part the entries; values can stand above or below the compound they belong to.

Columns and labels:
CYP1A1 and CYP1A2 = assay: Expression of CYP1A1 and CYP1A2 mRNAs; assay type: cell-based, human; conditions: three donors, 24 h, MMI 200 μM, TCDD 5 nM
[1] = Residual MMI in culture media after incubation with primary human hepatocytes; assay type: in vitro ADME; conditions: 24 h incubation with human hepatocytes, initial 200 μM
CYP1A genes = assay: Induction of CYP1A genes; conditions: 5 F-HepaRG cells, 24 h, MMI 200 μM; for efficacy of CYP1A genes induction relative to TCDD (100%): TCDD 5 nM
CYP1A1 [2] = assay: Induction of CYP1A1 catalytic activity in primary human hepatocytes; assay type: cell-based; conditions: 24 h; for induction of CYP1A1 activity, concentration-response profile (in words): then luciferin-CEE 3 h
CYP1A1 [3] = assay: Induction of CYP1A1 catalytic activity in LS180 cells; assay type: cell-based, human; conditions: 24 h, inverse U-shape profile
human AhR = conditions: cited from earlier work
CYP1A1 [4] = assay: Single concentration inactivation assay; assay type: biochemical; conditions: human, human liver microsomes, probe Luciferin-CEE
AhR = biological target: T1, AhR (Homo sapiens, UniProt P35869); assay type: cell-based; conditions: AZ-AHR cells, without incubation with hepatocytes
T1 sequence (P35869 11-848): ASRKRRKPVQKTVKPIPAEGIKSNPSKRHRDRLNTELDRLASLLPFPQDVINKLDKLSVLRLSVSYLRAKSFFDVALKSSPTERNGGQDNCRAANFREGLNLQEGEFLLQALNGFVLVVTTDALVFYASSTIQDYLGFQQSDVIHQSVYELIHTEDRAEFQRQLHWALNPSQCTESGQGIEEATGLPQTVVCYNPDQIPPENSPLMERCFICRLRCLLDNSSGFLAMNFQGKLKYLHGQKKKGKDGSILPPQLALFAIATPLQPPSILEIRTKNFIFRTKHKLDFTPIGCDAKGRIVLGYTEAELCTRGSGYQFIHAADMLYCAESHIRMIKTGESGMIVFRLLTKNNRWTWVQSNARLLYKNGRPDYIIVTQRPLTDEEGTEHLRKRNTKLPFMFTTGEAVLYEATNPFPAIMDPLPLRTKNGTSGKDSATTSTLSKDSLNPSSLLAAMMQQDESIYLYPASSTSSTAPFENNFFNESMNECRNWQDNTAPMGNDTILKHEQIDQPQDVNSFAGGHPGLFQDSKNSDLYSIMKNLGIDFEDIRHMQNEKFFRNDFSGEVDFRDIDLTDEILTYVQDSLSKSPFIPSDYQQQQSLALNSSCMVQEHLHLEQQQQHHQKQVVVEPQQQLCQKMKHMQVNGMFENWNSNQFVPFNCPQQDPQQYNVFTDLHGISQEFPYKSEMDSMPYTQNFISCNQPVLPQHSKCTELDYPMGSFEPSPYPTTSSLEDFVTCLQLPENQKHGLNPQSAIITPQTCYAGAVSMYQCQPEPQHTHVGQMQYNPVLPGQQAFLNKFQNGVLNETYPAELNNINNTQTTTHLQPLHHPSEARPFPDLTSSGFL

CYP1A1 [5] = conditions: ref Stepankova et al., 2018; cited from earlier work
CYP1A2 mRNA = CYP1A2 mRNA expression; assay type: cell-based, human; conditions: 5 F-HepaRG cells, 24 h, TCDD 5 nM, two consecutive passages
[6] = human hepatocytes, MMI 0.1-200 μM

SMILES: Cn1ccc2ccccc21 [1-methylindole]
induction of CYP1A1 and CYP1A2 mRNAs and proteins in primary human hepatocytes (in words) (CYP1A1 and CYP1A2): Modest induction | residual MMI in culture media (in words) [1]: no residual MMI was detected | efficacy of CYP1A genes induction relative to TCDD (100%) (CYP1A genes): 15%

SMILES: Cc1cc2ccccc2[nH]1 [2-methylindole]
induction of CYP1A1 and CYP1A2 mRNAs and proteins in primary human hepatocytes (in words) (CYP1A1 and CYP1A2): no effect | induction of CYP1A1 activity, concentration-response profile (in words) (CYP1A1 [2]; [6]): No induction | concentration at peak of CYP1A1 induction (CYP1A1 [3]): 25 µM | activity at AhR (in words) (human AhR; ref Stepankova et al., 2018): nearly inactive | CYP1A induction in HepaRG cells (in words) (CYP1A genes): nearly inactive

SMILES: Cc1c[nH]c2ccccc12 [3-methylindole]
induction of CYP1A1 and CYP1A2 mRNAs and proteins in primary human hepatocytes (in words) (CYP1A1 and CYP1A2): Modest induction | induction of CYP1A1 activity, concentration-response profile (in words) (CYP1A1 [2]; [6]): No induction | activity at human AhR (in words) (human AhR; ref Rasmussen et al., 2016): partial agonist

SMILES: Clc1cc2c(cc1Cl)Oc1cc(Cl)c(Cl)cc1O2 [TCDD, 2,3,7,8-tetrachlorodibenzo-p-dioxin, reference compound]
induction of CYP1A2 mRNA (CYP1A2 mRNA): 34 fold and 50 fold | induction of CYP1A1 and CYP1A2 mRNAs and proteins in primary human hepatocytes (in words) (CYP1A1 and CYP1A2): strongly induced | induction of CYP1A1 enzyme activity (CYP1A1 [2]; human hepatocytes culture Hep200571, TCDD 5 nM): 11 fold | induction of CYP1A1 enzyme activity (CYP1A1 [2]; human hepatocytes culture Hep220993, TCDD 5 nM): 153 fold

Further lines, with some results ahead:

induction of CYP1A1 activity, concentration-response profile (in words) (CYP1A1 [2]; [6]): Inverse U-shaped | concentration at peak of CYP1A1 induction (CYP1A1 [3]): 25 µM | inhibition at 30 min, 200 μM (CYP1A1 [4]): 10% | efficacy of CYP1A genes induction relative to TCDD (100%) (CYP1A genes): ~100%
SMILES: Cc1cccc2[nH]ccc12 [4-methylindole]
efficacy as AhR agonist compared to 3-methylindole (skatole) (human AhR; ref Stepankova et al., 2018): approx. 25 times

induction of CYP1A1 activity, concentration-response profile (in words) (CYP1A1 [2]; [6]): Inverse U-shaped | inhibition at 30 min, 200 μM (CYP1A1 [4]): 47% | efficacy of CYP1A genes induction relative to TCDD (100%) (CYP1A genes): ~ 20%
SMILES: Cc1ccc2[nH]ccc2c1 [5-methylindole]

induction of CYP1A1 activity, concentration-response profile (in words) (CYP1A1 [2]; [6]): Inverse U-shaped | concentration at peak of CYP1A1 induction (CYP1A1 [3]): 25 µM
SMILES: Cc1ccc2cc[nH]c2c1 [6-methylindole]
efficacy as AhR agonist compared to 3-methylindole (skatole) (human AhR; ref Stepankova et al., 2018): approx. 25 times

relative efficacy of CYP1A1 activity induction as compared to TCDD (CYP1A1 [2]; [6]): ~ 2% | induction of CYP1A1 activity, concentration-response profile (in words) (CYP1A1 [2]; [6]): Concentration-dependent induction | AhR agonist activity of parental compound (in words) (AhR): weak agonist of AhR | CYP1A induction in HepaRG cells (in words) (CYP1A genes): modest CYP1A inducer | efficacy of CYP1A genes induction relative to TCDD (100%) (CYP1A genes): ~ 20%
SMILES: Cc1cccc2cc[nH]c12 [7-methylindole]
induction of CYP1A1 and CYP1A2 mRNAs and proteins in primary human hepatocytes (in words) (CYP1A1 and CYP1A2): strong inducer; also recorded: very strong inducer | CYP1A induction in LS180 intestinal cells (in words) (CYP1A1 [5]): modest CYP1A inducer; also recorded: weak inducer
